Source: the NIST ThermoML archive (doi:10.1016/j.fluid.2017.02.010)
± gives the expanded uncertainty stated by the source.

Conditions: 293.15 K; 101.33 kPa; Liquid; Other PVT measurement

Structure (SMILES)	mass density [kg/m3]
c1ccc(C2CCCCC2)cc1 [cyclohexylbenzene]	940 ± 10
CCCCCCCCC [nonane]	718 ± 10
C1CCC(C2CCCCC2)CC1 [1,1'-bicyclohexyl]	890 ± 10
CCCCCC [hexane]	659 ± 10
CCCCCCC1CCCCC1 [hexylcyclohexane]	810 ± 10
CCCCCCCCCCCCCCCC [hexadecane]	773 ± 10
CCCC1CCCCC1 [1-cyclohexylpropane]	790 ± 10
CCCCCCCCCCCC [dodecane]	753 ± 10
C1CCCCC1 [cyclohexane]	778 ± 10
c1ccccc1 [benzene]	877 ± 10
CCCCCCCCCCCCCC [tetradecane]	767 ± 10
